Molecular target: T1, human MR (mineralocorticoid receptor) (Homo sapiens, UniProt P08235)
T1 construct: expressed in transfected cells; host or cells: HEK293 (293-MR lysate)
T1 sequence (P08235 1-984): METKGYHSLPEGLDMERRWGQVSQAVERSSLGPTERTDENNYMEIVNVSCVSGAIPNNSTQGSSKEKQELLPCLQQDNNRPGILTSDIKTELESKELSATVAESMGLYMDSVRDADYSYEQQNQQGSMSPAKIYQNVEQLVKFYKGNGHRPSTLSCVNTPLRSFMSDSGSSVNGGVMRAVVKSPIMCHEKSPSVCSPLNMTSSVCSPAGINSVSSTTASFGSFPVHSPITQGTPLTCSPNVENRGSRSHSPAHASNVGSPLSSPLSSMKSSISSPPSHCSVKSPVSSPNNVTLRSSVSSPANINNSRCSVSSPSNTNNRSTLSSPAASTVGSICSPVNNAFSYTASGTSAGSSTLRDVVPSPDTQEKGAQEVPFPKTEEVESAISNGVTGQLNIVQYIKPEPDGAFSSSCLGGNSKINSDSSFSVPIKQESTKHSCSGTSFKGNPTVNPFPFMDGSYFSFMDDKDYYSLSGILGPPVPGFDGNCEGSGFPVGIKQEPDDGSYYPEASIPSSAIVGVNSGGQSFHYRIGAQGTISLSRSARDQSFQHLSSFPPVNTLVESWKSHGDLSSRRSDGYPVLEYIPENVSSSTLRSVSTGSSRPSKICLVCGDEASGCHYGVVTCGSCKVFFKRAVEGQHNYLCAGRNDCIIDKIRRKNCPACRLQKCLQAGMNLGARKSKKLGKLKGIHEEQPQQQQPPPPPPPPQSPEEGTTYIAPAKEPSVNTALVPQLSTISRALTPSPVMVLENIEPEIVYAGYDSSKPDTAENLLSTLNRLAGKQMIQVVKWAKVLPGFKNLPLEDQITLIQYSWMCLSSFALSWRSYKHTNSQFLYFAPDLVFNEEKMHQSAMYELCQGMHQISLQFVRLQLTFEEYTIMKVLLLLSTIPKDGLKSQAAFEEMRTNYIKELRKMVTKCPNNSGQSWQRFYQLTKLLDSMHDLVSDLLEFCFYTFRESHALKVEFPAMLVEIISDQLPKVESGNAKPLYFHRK
Test: Nuclear hormone receptor competition binding assay, MR
Conditions: HEK293 lysate overexpressing human MR, [3H]-aldosterone; mean of n=7
Procedure: Cell lysates from human embryonic kidney HEK293 cells overexpressing human GR (glucocorticoid receptor), AR (androgen receptor), MR (mineralocorticoid receptor), or PR (progesterone receptor) are used for receptor-ligand competition binding assays to determine Ki values.
Briefly, steroid receptor competition binding assays are run in a buffer containing 20 mM Hepes buffer (pH=7.6), 0.2 mM EDTA, 75 mM NaCl, 1.5 mM MgCl2, 20% glycerol, 20 mM sodium molybdate, 0.2 mM DTT (dithiothreitol), 20 μg/ml aprotinin and 20 μg/ml leupeptin. Typically, steroid receptor binding assays include radio-labeled ligands, such as 0.3 nM [^3H]-dexamethasone for GR binding, 0.36 nM [^3H]-methyltrienolone for AR binding, 0.25 nM [^3H]-aldosterone for MR binding, and 0.29 nM [^3H]-methyltrienolone for PR binding, and either 20 μg 293-GR lysate, 22 μg 293-AR lysate, 20 μg 293-MR lysate or 40 μg 293-PR lysate per well. Assays are typically run in 96-well format. Competing test compounds are added at various concentrations ranging from about 0.01 nM to 10 μM. Non-specific binding is determined in the presence of 500 nM dexamethasone for GR binding, 500 nM aldosterone for MR binding, or 500 nM methyltrienolone for AR and PR binding. […] After an incubation of 2 hours, plates are read in a Wallac Microbeta counter. […]

Ki: ~9.2 nM
SMILES: CC/C(=C1\c2ccc(F)cc2OCc2ncccc21)c1cccc(NS(C)(=O)=O)c1 [Compound (I), (E)-N-{3-[1-(8-Fluoro-11H-10-oxa-1-aza-dibenzo[a,d]cyclohepten-5-ylidene)-propyl]-phenyl}-methanesulfonamide]

— patent US8101761B2, “(E)-N-{3-[1-(8-fluoro-11H-10-OXA-1-AZA-dibenzo [A,D] cyclohepten-5ylidene)-propyl]-phenyl}-methanesulfonamide as glucocorticoid receptor modulator for the treatment of rheumatoid arthritis” (Eli Lilly and Company, priority 2008, dated 2012)
